Reference: US9062324B2, “Herbicide tolerant soybean plants and methods for identifying same” (M.S. TECHNOLOGIES LLC, priority 2009, dated 2015)

Legend:
[1] = tested on: soybean plants comprising EE-GM3; experiment: field trials of EE-GM3 in different commercial genetic backgrounds, herbicide challenge; format: in vivo, Glycine max; conditions: glyphosate and/or isoxaflutole, different treatments, different locations and genetic backgrounds
Source text: The selected event EE-GM3 was introduced in different commercial genetic backgrounds, and results of field trials on different locations were compared. Plants were challenged with glyphosate herbicide and/or isoxaflutole herbicide using different treatments. […] Hundreds of different soybean cultivars containing event EE-GM3 were used in an inheritance study, and herbicides were applied. Selected lines from this trial were later increased in the field and also treated with herbicide. From that trial, 50 selected lines were increased, and these were also herbicide treated.

[2] = tested on: soybean plants comprising EE-GM3 and EE-GM2; experiment: field trial of lines combining EE-GM3 and EE-GM2 sprayed with glyphosate and glufosinate; format: in vivo, Glycine max; conditions: approximately 40 lines homozygous for tolerance to both herbicides
Source text: A soybean plant containing a combination of elite events EE-GM3 and EE-GM2 has been obtained by conventional crossing between a parent soybean plant comprising EE-GM3 and a parent soybean plant comprising EE-GM2. Progeny plants comprising both events are identified using PCR Identification Protocols for EE-GM2 and EE-GM3 as described herein. Specifically, crosses were made with plants containing EE-GM3 and plants containing EE-GM2. The resulting F1 plants were crossed to 4 conventional lines. The F1s from these crosses were grown in the field and sprayed with glyphosate and glufosinate. F2 seed harvested from F1 plants resistant to both herbicides was then planted. The F2 plants were sprayed with both glyphosate and glufosinate. Nine hundred plants tolerant to both herbicides were harvested and planted in a field trial. Expected Mendelian segregation data for the events was obtained in this trial. Approximately 40 lines homozygous for tolerance to both herbicides were selected for agronomic uniformity for further studies.

| Structure (SMILES) | herbicide tolerance of plants [1] | tolerance of selected homozygous lines to herbicide [2] |
| --- | --- | --- |
| O=C(O)CNCP(=O)(O)O [glyphosate] | good herbicide tolerance | good tolerance |
| CP(=O)(O)CCC(N)C(=O)O (stereo not shown) [glufosinate] |  | good tolerance |
| CS(=O)(=O)c1cc(C(F)(F)F)ccc1C(=O)c1cnoc1C1CC1 [IFT, (5-cyclopropyl-4-isoxazolyl)[2-(methylsulfonyl)-4-(trifluoromethyl)phenyl]methanone] | good herbicide tolerance |  |
